Results as given in US5874402A, “Use of cell membrane permeants in the treatment of cellular proliferative diseases” (Matrix Pharmaceutical, Inc., priority 1997, dated 1999).

What was measured:
RIF-1 tumors = test: RIF-1 murine tumor growth delay after intratumoral injection (days to 4× tumor volume; T/C); format: in vivo, murine (C3H mice); design: key to Treated (Table 7 column): days for tumors to reach 4x baseline volume
Procedure: (§1) When the introduced tumors reached 100 mm^3, the mice were ready for testing. During the course of the experiments, the treated and control tumors were measured three times per week by Vernier calipers and the tumor volumes were calculated using the following formula: […]
where D1 -D3 are tumor diameters in millimeters. The number of days for tumors to reach four times (4×) their baseline volume was used as a parameter of treatment effectiveness. Therefore, a longer delay in tumor growth meant greater antitumor efficacy.

C3H mice = test: Lethal toxicity (deaths) after intratumoral injection in RIF-1 tumor-bearing C3H mice; format: in vivo
Procedure: as §1, with “For each of the following experiments, transplantable murine fibrosarcoma RIF-1 tumors were grown intradermally in the flank of 3-7 month old female C3H mice (2×10^5 cells were injected). When” for “When”

ovarian cancer cells = conditions: in vitro; cells first exposed to digitonin; cited from earlier work
[1] = Table 6, agent 40 mg/kg (BFA: DMSO as solvent), saponin 10 mg/kg 1 hr prior where combined
[2] = Table 7, dose printed 10, 4 mg/kg (saponin, vinblastine)

Compound: Cc1ccc(C(=O)Nc2ccc(S(=O)(=O)O)c3cc(S(=O)(=O)O)cc(S(=O)(=O)O)c23)cc1NC(=O)c1cccc(NC(=O)Nc2cccc(C(=O)Nc3cc(C(=O)Nc4ccc(S(=O)(=O)O)c5cc(S(=O)(=O)O)cc(S(=O)(=O)O)c45)ccc3C)c2)c1 [Suramin]
- T/C (ratio of tumor growth delay of treated tumors to untreated controls) (RIF-1 tumors; Table 6, agent 20 mg/kg, saponin 10 mg/kg 1 hr prior where combined): 1.0

Compound: C=C1O[C@@](CO)(n2cnc3c(N)ncnc32)[C@H](O)[C@@H]1O [Decoyinine]
- T/C (ratio of tumor growth delay of treated tumors to untreated controls) (RIF-1 tumors; [1]): 1.0

Compound: CC[C@]1(O)C[C@@H]2CN(CCc3c([nH]c4ccccc34)[C@@](C(=O)OC)(c3cc4c(cc3OC)N(C)[C@H]3[C@@](O)(C(=O)OC)[C@H](OC(C)=O)[C@]5(CC)C=CCN6CC[C@]43[C@@H]65)C2)C1 [Vinblastine(VLB), Vinblastine]
- Treated (Table 7 column) (RIF-1 tumors; [2]): 14.1 ± 1.57
- Efficacy of vinblastine, in words (RIF-1 tumors; in conjunction with saponin (Table 7)): greatly enhances the efficacy of the vinblastine
- Efficacy of vinblastine, in words (RIF-1 tumors; with saponin and collagen gel matrix (Table 7)): further enhances the efficacy of vinblastine
- Toxicity Deaths/# mice (C3H mice; [2]): 0/5
- Lethal toxic side effects, in words (C3H mice; vinblastine with saponin and collagen gel matrix (Table 7)): decreasing the observed lethal toxic side effects

Compound: N.N.[Cl][Pt][Cl] [cisplatin]
- Uptake of cisplatin by ovarian cancer cells (ovarian cancer cells): enhanced uptake

Compound: C[C@H]1O[C@@H](O[C@H]2[C@@H](O)C[C@H](O[C@H]3[C@@H](O)C[C@H](O[C@H]4CC[C@@]5(C)[C@H](CC[C@@H]6[C@@H]5CC[C@]5(C)[C@@H](C7=CC(=O)OC7)CC[C@]65O)C4)O[C@@H]3C)O[C@@H]2C)C[C@H](O)[C@@H]1O [Digitoxin]
- T/C (ratio of tumor growth delay of treated tumors to untreated controls) (RIF-1 tumors; Table 5, permeant 40 mg/kg, no TNF): 0.99

Compound: N#C/C(=C\c1ccc(O)c(O)c1)C(N)=S [Tyrphostin 47]
- T/C (ratio of tumor growth delay of treated tumors to untreated controls) (RIF-1 tumors; Table 6, agent 60 mg/kg, EtOH as solvent, saponin 10 mg/kg 1 hr prior where combined): 1.1

Compound: Neomycin sulfate [Neomycin sulfate (NS)]
- T/C (ratio of tumor growth delay of treated tumors to untreated controls) (RIF-1 tumors; [1]): 0.7

Compound: C[C@H]1CCC/C=C/[C@@H]2C[C@H](O)C[C@H]2[C@H](O)/C=C/C(=O)O1 [Brefeldin A(BFA), Brefeldin A]
- T/C (ratio of tumor growth delay of treated tumors to untreated controls) (RIF-1 tumors; [1]): 2.6

Compound: O=c1c(-c2ccc(O)cc2)coc2cc(O)cc(O)c12 [Genistein]
- T/C (ratio of tumor growth delay of treated tumors to untreated controls) (RIF-1 tumors; Table 6, agent 80 mg/kg, saponin 10 mg/kg 1 hr prior where combined): 1.1

Compound: Lysolecithin(type 1)
- T/C (ratio of tumor growth delay of treated tumors to untreated controls) (RIF-1 tumors; Table 5, permeant 10 mg/kg, no TNF): 1.27
